# Experimental data: ChEMBL document CHEMBL4229545, “Oximes short-acting CB1 receptor agonists” (Bioorg Med Chem, 2018)
# Calls of active or inactive are those of the source. The rule behind the calls is not given here.
# How the values were obtained:
# Cannabinoid receptor 2 [1] = biological target: T1, Cannabinoid receptor 2 (Homo sapiens, UniProt P34972); experiment: Agonist activity at recombinant human Cb2 receptor expressed in HEK293 cells assessed as inhibition of forskolin-stimulated cAMP levels; assay type: functional, cell-based; conditions: read-out: EC50
# T1 sequence (P34972 whole entry): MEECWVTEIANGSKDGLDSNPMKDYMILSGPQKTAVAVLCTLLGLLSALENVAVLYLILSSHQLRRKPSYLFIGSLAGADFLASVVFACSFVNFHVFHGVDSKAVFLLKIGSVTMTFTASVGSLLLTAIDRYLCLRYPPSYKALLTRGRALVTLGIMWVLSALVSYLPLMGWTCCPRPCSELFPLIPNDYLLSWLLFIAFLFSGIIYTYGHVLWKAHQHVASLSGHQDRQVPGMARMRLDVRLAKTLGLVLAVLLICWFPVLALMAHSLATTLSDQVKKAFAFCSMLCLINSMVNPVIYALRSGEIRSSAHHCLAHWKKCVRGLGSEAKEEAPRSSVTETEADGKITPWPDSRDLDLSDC
# Cannabinoid receptor 2 [2] = biological target: Cannabinoid receptor 2 (Mus musculus, UniProt P47936); experiment: Displacement of [3H]CP-55,940 from recombinant mouse Cb2 receptor expressed in HEK293 cells; assay type: cell-based
# Chain of Cannabinoid receptor 2 (Mus musculus, UniProt P47936) (P47936 whole entry): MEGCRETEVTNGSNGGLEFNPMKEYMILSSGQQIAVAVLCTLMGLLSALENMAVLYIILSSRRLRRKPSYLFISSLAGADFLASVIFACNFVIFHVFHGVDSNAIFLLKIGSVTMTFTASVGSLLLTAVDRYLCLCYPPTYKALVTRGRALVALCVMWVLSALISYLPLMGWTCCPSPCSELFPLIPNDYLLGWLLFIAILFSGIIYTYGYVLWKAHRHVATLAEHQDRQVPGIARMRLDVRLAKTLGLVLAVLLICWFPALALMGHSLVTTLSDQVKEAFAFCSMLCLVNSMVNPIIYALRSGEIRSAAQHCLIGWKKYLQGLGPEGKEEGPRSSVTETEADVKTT
# Cannabinoid receptor 2 [3] = biological target: T1, Cannabinoid receptor 2; experiment: Displacement of [3H]CP-55,940 from recombinant human Cb2 receptor expressed in HEK293 cells; assay type: cell-based
# [4] = biological target: Cannabinoid receptor 1 (Rattus norvegicus) (UniProt P20272); experiment: Agonist activity at recombinant rat Cb1 receptor expressed in HEK293 cells assessed as inhibition of forskolin-stimulated cAMP levels relative to control; assay type: functional, cell-based
# Chain of Cannabinoid receptor 1 (Rattus norvegicus) (P20272 whole entry): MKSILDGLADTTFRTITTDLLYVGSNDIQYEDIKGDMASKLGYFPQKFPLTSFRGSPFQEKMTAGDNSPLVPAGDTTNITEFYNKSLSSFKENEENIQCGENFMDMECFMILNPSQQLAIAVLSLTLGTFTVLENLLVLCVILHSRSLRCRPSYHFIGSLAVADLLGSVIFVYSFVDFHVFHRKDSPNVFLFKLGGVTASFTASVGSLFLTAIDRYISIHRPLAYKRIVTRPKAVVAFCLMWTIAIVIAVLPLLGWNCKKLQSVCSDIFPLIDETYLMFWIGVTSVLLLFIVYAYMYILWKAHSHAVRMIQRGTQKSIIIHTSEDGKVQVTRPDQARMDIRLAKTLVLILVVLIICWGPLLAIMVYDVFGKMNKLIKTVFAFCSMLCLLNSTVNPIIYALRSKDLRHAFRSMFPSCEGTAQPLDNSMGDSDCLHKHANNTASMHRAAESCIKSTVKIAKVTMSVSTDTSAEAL
# Cannabinoid receptor 1 [5] = biological target: T2, Cannabinoid receptor 1 (Rattus norvegicus, UniProt P20272); experiment: Displacement of [3H]CP-55,940 from rat brain Cb1 receptor
# T2 sequence (P20272 whole entry): as above
# Cannabinoid receptor 2 [6] = biological target: T1, Cannabinoid receptor 2; experiment: Agonist activity at recombinant human Cb2 receptor expressed in HEK293 cells assessed as inhibition of forskolin-stimulated cAMP levels relative to CP-55940; assay type: functional, cell-based
# Cannabinoid receptor 1 [7] = biological target: T2, Cannabinoid receptor 1; experiment: Agonist activity at recombinant rat Cb1 receptor expressed in HEK293 cells assessed as inhibition of forskolin-stimulated cAMP levels; assay type: functional, cell-based; conditions: read-out: EC50
# [8] = AUC in CD1 mouse spleen at 2 mg/kg, iv; assay type: ADME, organism-based
# [9] = Half life in CD1 mouse at 10 mg/kg, po; assay type: ADME, organism-based; conditions: in vivo
# [10] = Half life in rat plasma; assay type: ADME, cell-free
# [11] = AUC in CD1 mouse brain at 2 mg/kg, iv; assay type: ADME, organism-based
# [12] = AUC in CD1 mouse fat at 2 mg/kg, iv; assay type: ADME, organism-based, Adipose tissue
# [13] = Half life in rat liver microsomes; assay type: ADME, microsome
# [14] = Ratio of AUC in plasma to spleen of CD1 mouse at 10 mg/kg, po; assay type: ADME, organism-based; conditions: in vivo
# [15] = AUC in CD1 mouse plasma at 10 mg/kg, po; assay type: ADME, organism-based
# Mus musculus [16] = experiment: Analgesic activity in ip dosed CD1 mouse model of thermal-induced nociception assessed as tail withdrawal latency measured after 20 mins by tail flick test; assay type: functional
# [17] = AUC in CD1 mouse fat at 10 mg/kg, po; assay type: ADME, organism-based, Adipose tissue
# [18] = Ratio of AUC in plasma to spleen of CD1 mouse at 2 mg/kg, iv; assay type: ADME, organism-based; conditions: in vivo
# [19] = Volume of distribution in CD1 mouse at 2 mg/kg, iv; assay type: ADME, organism-based; conditions: in vivo
# [20] = Ratio of AUC in plasma to kidney of CD1 mouse at 2 mg/kg, iv; assay type: ADME, organism-based; conditions: in vivo
# [21] = AUC in CD1 mouse at 2 mg/kg, iv; assay type: ADME, organism-based; conditions: in vivo
# [22] = Half life in mouse liver microsomes; assay type: ADME, microsome
# [23] = Ratio of AUC in plasma to kidney of CD1 mouse at 10 mg/kg, po; assay type: ADME, organism-based; conditions: in vivo
# [24] = Ratio of AUC in plasma to liver of CD1 mouse at 2 mg/kg, iv; assay type: ADME, organism-based; conditions: in vivo
# [25] = AUC in CD1 mouse brain at 10 mg/kg, po; assay type: ADME, organism-based
# [26] = Ratio of AUC in plasma to fat of CD1 mouse at 2 mg/kg, iv; assay type: ADME, organism-based, Adipose tissue/Plasma; conditions: in vivo
# Mus musculus [27] = experiment: Volume of distribution in CD1 mouse at 10 mg/kg, po; assay type: ADME, organism-based; conditions: in vivo
# [28] = AUC in CD1 mouse urine at 10 mg/kg, po; assay type: ADME, organism-based
# [29] = Half life in human liver microsomes; assay type: ADME, microsome
# Mus musculus [30] = experiment: Analgesic activity in CD1 mouse model of thermal-induced nociception assessed as tail withdrawal latency at 1 mg/kg, ip measured after 180 to 360 mins by tail flick test; assay type: functional, organism-based
# [31] = biological target: Cannabinoid receptor 1 (Rattus norvegicus) (UniProt P20272); experiment: Displacement of [3H]CP-55,940 from rat brain Cb1 receptor expressed in HEK293 cells at 10 times Ki incubated for 1 hr followed by 5 times membrane washout; assay type: cell-based
# Rattus norvegicus [32] = species: Rattus norvegicus; conditions: Sprague-Dawley
# Description: Induction of hypothermia in ip dosed Sprague-Dawley rat assessed as decrease in body temperature measured up to 180 mins
# [33] = AUC in CD1 mouse liver at 2 mg/kg, iv; assay type: ADME, organism-based
# [34] = AUC in CD1 mouse kidney at 10 mg/kg, po; assay type: ADME, organism-based
# Rattus norvegicus [35] = experiment: Induction of hypothermia in Sprague-Dawley rat assessed as decrease in body temperature at 1 to 10 mg/kg, ip measured after 180 to 360 mins; assay type: functional, organism-based
# [36] = Ratio of AUC in plasma to fat of CD1 mouse at 10 mg/kg, po; assay type: ADME, organism-based, Adipose tissue/Plasma; conditions: in vivo
# [37] = Half life in mouse plasma; assay type: ADME, cell-free
# [38] = Half life in simulated gastric fluid; assay type: ADME
# [39] = Ratio of AUC in plasma to liver of CD1 mouse at 10 mg/kg, po; assay type: ADME, organism-based; conditions: in vivo
# [40] = AUC in CD1 mouse plasma at 2 mg/kg, iv; assay type: ADME, organism-based
# [41] = Tmax in CD1 mouse at 10 mg/kg, po; assay type: ADME, organism-based; conditions: in vivo
# [42] = AUC in CD1 mouse liver at 10 mg/kg, po; assay type: ADME, organism-based
# Rattus norvegicus [43] = experiment: Induction of hypothermia in Sprague-Dawley rat assessed as decrease in body temperature at 1 mg/kg, ip measured after 24 hrs; assay type: functional, organism-based
# [44] = AUC in CD1 mouse at 10 mg/kg, po; assay type: ADME, organism-based; conditions: in vivo
# [45] = Ratio of AUC in plasma to brain of CD1 mouse at 10 mg/kg, po; assay type: ADME, organism-based; conditions: in vivo
# [46] = biological target: Cannabinoid receptor 1 (Rattus norvegicus) (UniProt P20272); experiment: Displacement of [3H]CP-55,940 from rat brain Cb1 receptor expressed in HEK293 cells at 10 times Ki measured after 1 hr relative to control; assay type: cell-based
# [47] = Ratio of AUC in plasma to urine of CD1 mouse at 10 mg/kg, po; assay type: ADME, organism-based; conditions: in vivo
# [48] = Half life in human plasma; assay type: ADME, cell-free
# [49] = AUC in CD1 mouse kidney at 2 mg/kg, iv; assay type: ADME, organism-based
# [50] = Ratio of AUC in plasma to brain of CD1 mouse at 2 mg/kg, iv; assay type: ADME, organism-based; conditions: in vivo
# [51] = AUC in CD1 mouse spleen at 10 mg/kg, po; assay type: ADME, organism-based
# Rattus norvegicus [52] = experiment: Induction of hypothermia in Sprague-Dawley rat assessed as decrease in body temperature at 1 mg/kg, ip measured after 3 to 6 hrs; assay type: functional, organism-based
# [53] = Half life in CD1 mouse at 2 mg/kg, iv; assay type: ADME, organism-based; conditions: in vivo
structure (smiles),measurement,setting,value
CC1=CC[C@H]2[C@H](C1)c1c(O)cc(/C(C)=N/OCCCc3ccccc3)cc1OC2(C)C,EC50,Cannabinoid receptor 2 [1],1.65 nM
same,Ki,Cannabinoid receptor 2 [2],3.8 nM
same,Ki,Cannabinoid receptor 2 [3],2.7 nM
same,Emax,[4],27%
same,Ki,Cannabinoid receptor 1 [5],3 nM
same,Emax,Cannabinoid receptor 2 [6],35%
same,EC50,Cannabinoid receptor 1 [7],2.6 nM
CC1=CC[C@H]2[C@H](C1)c1c(O)cc(/C(C)=N/OCCCC#N)cc1OC2(C)C,AUC,[8],957 ng·h/mL
same,half-life,[9],35.2 min
same,EC50,Cannabinoid receptor 2 [1],12 nM
same,half-life,[10],> 60 min
same,AUC,[11],443 ng·h/mL
same,AUC,[12],5390 ng·h/mL
same,half-life,[13],12 min
same,Ki,Cannabinoid receptor 2 [2],2.6 nM
same,Ratio AUC,[14],0.86
same,AUC,[15],124 ng·h/mL
same,Activity,Mus musculus [16],Dose-dependent effect
same,ED50,Mus musculus [16],1.42 mg/kg
same,AUC,[17],710 ng·h/mL
same,Ratio AUC,[18],1.06
same,Vd,[19],2.16 L/kg
same,Ratio AUC,[20],0.99
same,AUC,[21],1060 ng·h/mL
same,Ki,Cannabinoid receptor 2 [3],1.3 nM
same,half-life,[22],13 min
same,Ratio AUC,[23],2.06
same,Ratio AUC,[24],0.64
same,AUC,[25],154 ng·h/mL
same,Ratio AUC,[26],5.98
same,Vd,Mus musculus [27],68.042 L/kg
same,AUC,[28],11.3 ng·h/mL
same,half-life,[29],9 min
same,Activity,Mus musculus [30],Active
same,inhibition,[31],23%
same,deltaT,Rattus norvegicus [32],4.5 to 7.7 °C
same,Emax,[4],51%
same,AUC,[33],580 ng·h/mL
same,AUC,[34],257 ng·h/mL
same,Activity,Rattus norvegicus [35],inactive
same,Ratio AUC,[36],5.72
same,half-life,[37],> 60 min
same,half-life,[38],> 60 min
same,Ratio AUC,[39],2.48
same,AUC,[40],900 ng·h/mL
same,Ki,Cannabinoid receptor 1 [5],0.9 nM
same,Tmax,[41],60 min
same,AUC,[42],308 ng·h/mL
same,Activity,Rattus norvegicus [43],inactive
same,AUC,[44],1240 ng·h/mL
same,Ratio AUC,[45],1.24
same,inhibition,[46],44%
same,Ratio AUC,[47],0.09
same,half-life,[48],> 60 min
same,AUC,[49],890 ng·h/mL
same,Ratio AUC,[50],0.49
same,AUC,[51],107 ng·h/mL
same,Emax,Cannabinoid receptor 2 [6],47%
same,EC50,Cannabinoid receptor 1 [7],4.4 nM
same,Activity,Rattus norvegicus [52],Active
same,half-life,[53],47.3 min
CCCCCCC(C)(C)c1ccc([C@@H]2C[C@H](O)CC[C@H]2CCCO)c(O)c1,Emax,[4],70 to 85%
same,Emax,Cannabinoid receptor 2 [6],70 to 85%
CC1=CC[C@H]2[C@H](C1)c1c(O)cc(/C(C)=N/OCCCn3ccnc3)cc1OC2(C)C,Ki,Cannabinoid receptor 2 [2],1.5 nM
same,Ki,Cannabinoid receptor 2 [3],3.7 nM
same,Ki,Cannabinoid receptor 1 [5],1.2 nM
CC1=CC[C@H]2[C@H](C1)c1c(O)cc(/C(C)=N/OCCN3CCCCC3)cc1OC2(C)C,EC50,Cannabinoid receptor 2 [1],65.7 nM
same,Ki,Cannabinoid receptor 2 [2],4.1 nM
same,Ki,Cannabinoid receptor 2 [3],2.5 nM
same,Emax,[4],31%
same,Ki,Cannabinoid receptor 1 [5],5.6 nM
same,Emax,Cannabinoid receptor 2 [6],147%
same,EC50,Cannabinoid receptor 1 [7],12.7 nM
CCCCCCC(C)(C)c1cc(O)c2c(c1)OC(C)(C)[C@H]1CC=C(C)C[C@H]21,Ki,Cannabinoid receptor 2 [2],3.2 nM
same,Ki,Cannabinoid receptor 2 [3],9 nM
same,Ki,Cannabinoid receptor 1 [5],0.77 nM
CCO/N=C(\C)c1cc(O)c2c(c1)OC(C)(C)[C@H]1CC=C(C)C[C@H]21,Ki,Cannabinoid receptor 2 [2],74.8 nM
same,Ki,Cannabinoid receptor 1 [5],66.1 nM
CCCCCc1cc(O)c2c(c1)OC(C)(C)[C@H]1CC=C(C)C[C@H]21,Ki,Cannabinoid receptor 2 [2],40.4 nM
CC1=CC[C@H]2[C@H](C1)c1c(O)cc(/C(C)=N/OCCOc3ccccc3)cc1OC2(C)C,EC50,Cannabinoid receptor 2 [1],49.6 nM
same,Ki,Cannabinoid receptor 2 [2],3.7 nM
same,Ki,Cannabinoid receptor 2 [3],6.2 nM
same,Emax,[4],56%
same,Ki,Cannabinoid receptor 1 [5],11.4 nM
same,Emax,Cannabinoid receptor 2 [6],99%
same,EC50,Cannabinoid receptor 1 [7],0.9 nM
